Target: T1, FBG domain of Tenascin C (FBG-C, FBG-BAP, hFBG-C) (Homo sapiens, UniProt P24821)
T1 sequence (P24821 1976-2193): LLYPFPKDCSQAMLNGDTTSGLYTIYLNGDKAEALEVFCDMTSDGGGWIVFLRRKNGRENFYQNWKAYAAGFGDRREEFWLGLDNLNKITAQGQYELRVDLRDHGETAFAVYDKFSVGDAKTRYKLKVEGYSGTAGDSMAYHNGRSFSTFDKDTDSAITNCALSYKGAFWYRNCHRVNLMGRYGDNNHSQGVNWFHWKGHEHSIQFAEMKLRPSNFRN
Assay: SPR, biotinylated FBG on SA chip
Type: binding

Kd: 553 µM
Structure (SMILES): COc1ccc(CN(C)CCc2cnn(C)c2)cc1OC[C@@H](O)CN1CCCCC1 [compound 830, 73494830]

Reference: paper doi:10.1101/2025.05.23.655116v1 (biorxiv, 2025)
